Laboratory results: ChEMBL document CHEMBL2086259, “13,28-Epoxy triterpenoid saponins from Ardisia japonica selectively inhibit proliferation of liver cancer cells without affecting normal liver cells” (Bioorg Med Chem Lett, 2012)
Calls of active or inactive are those of the source. The calls are words filed in the database; no cut-off is given here.

Legend:
Bel-7402 [1] = test: Cytotoxicity against human Bel7402 cells after 72 hrs by MTT assay; assay type: functional, cell-based; settings: Bel-7402, 72 h
Bcap37 = test: Cytotoxicity against human Bcap37 cells after 72 hrs by MTT assay; assay type: functional, cell-based; settings: Bcap37, 72 h
[2] = Cell cycle arrest in human HL-7702 cells assessed as accumulation at G2/M phase by FACS flow cytometry; assay type: cell-based; settings: l02
[3] = Cytotoxicity against human HL-7702 cells after 72 hrs by MTT assay; assay type: cell-based; settings: L02, 72 h
HepG2 = test: Cytotoxicity against human HepG2 cells after 72 hrs by MTT assay; assay type: functional, cell-based; settings: HepG2, 72 h
[4] = Cytotoxicity against human HL-7702 cells at 2.5 uM by MTT assay; assay type: cell-based; settings: l02, 2.5 µM, TDE = time-dependent effect
Bel-7402 [5] = test: Cell cycle arrest in human Bel7402 cells assessed as accumulation at G1 phase by FACS flow cytometry; assay type: functional
[6] = Cytotoxicity against human HL-7702 cells measured for 72 hrs by MTT assay; assay type: cell-based; settings: l02, 72 h
Bel-7402 [7] = test: Induction of apoptosis in human Bel7402 cells assessed as late apoptotic cells at 2.5 uM after 12 hrs by annexin V-FITC/propidium iodide staining based flow cytometry (reference value: 5.5 %); assay type: functional
[8] = Cell cycle arrest in human HL-7702 cells assessed as accumulation at sub-G1 phase by FACS flow cytometry; assay type: cell-based; settings: l02
NCI-H157 = test: Cytotoxicity against human NCI-H157 cells after 72 hrs by MTT assay; assay type: functional, cell-based; settings: NCI-H157, 72 h
[9] = Induction of apoptosis in human HL-7702 cells assessed as late apoptotic cells at 2.5 uM after 48 hrs by annexin V-FITC/propidium iodide staining based flow cytometry (Rvb =8.6 %); assay type: cell-based; settings: l02, 48 h
Bel-7402 [10] = test: Induction of apoptosis in human Bel7402 cells assessed as early apoptotic cells at 2.5 uM after 24 hrs by annexin V-FITC/propidium iodide staining based flow cytometry (reference value: 3.8 %); assay type: functional
MCF7 = test: Cytotoxicity against human MCF7 cells after 72 hrs by MTT assay; assay type: functional, cell-based; settings: MCF7, 72 h
DU-145 = test: Cytotoxicity against human DU145 cells after 72 hrs by MTT assay; assay type: functional, cell-based; settings: DU-145, 72 h
NCI-H460 = test: Cytotoxicity against human H460 cells after 72 hrs by MTT assay; assay type: functional, cell-based; settings: NCI-H460, 72 h
[11] = Cell cycle arrest in human HL-7702 cells assessed as accumulation at S phase by FACS flow cytometry; assay type: ADME, cell-based; settings: l02
MKN-45 = test: Cytotoxicity against human MKN45 cells after 72 hrs by MTT assay; assay type: functional, cell-based; settings: MKN-45, 72 h
Caco-2 = test: Cytotoxicity against human Caco2 cells after 72 hrs by MTT assay; assay type: functional, cell-based; settings: Caco-2, 72 h
Bel-7402 [12] = test: Induction of apoptosis in human Bel7402 cells assessed as increase in caspase 8 levels; assay type: functional, cell-based
[13] = Cytotoxicity against human LTEP-A2 cells after 72 hrs by MTT assay; assay type: functional, cell-based; settings: LTEP-A2, 72 h
HCT-116 = test: Cytotoxicity against human HCT116 cells after 72 hrs by MTT assay; assay type: functional, cell-based; settings: HCT-116, 72 h
Bel-7402 [14] = test: Cytotoxicity against human Bel7402 cells measured for 72 hrs by MTT assay; assay type: functional, cell-based
NCI-H446 = test: Cytotoxicity against human NCI-H446 cells after 72 hrs by MTT assay; assay type: functional, cell-based; settings: NCI-H446, 72 h
[15] = […] of Cdc25A expression in human HL-7702 cells assessed as reduction in mRNA level at 2.5 uM after 12 to 48 hrs by RT-PCR analysis; assay type: ADME, cell-based; settings: l02, 2.5 µM
Bel-7402 [16] = test: Induction of apoptosis in human Bel7402 cells assessed as early apoptotic cells at 2.5 uM after 12 hrs by annexin V-FITC/propidium iodide staining based flow cytometry (reference value: 3.2 %); assay type: functional
Bel-7402 [17] = test: Cell cycle arrest in human Bel7402 cells assessed as accumulation at G2/M phase by FACS flow cytometry; assay type: functional
Bel-7402 [18] = test: Induction of apoptosis in human Bel7402 cells assessed as late apoptotic cells at 2.5 uM after 48 hrs by annexin V-FITC/propidium iodide staining based flow cytometry (reference value: 3.7 %); assay type: functional
[19] = Induction of apoptosis in human HL-7702 cells assessed as early apoptotic cells at 2.5 uM after 48 hrs by annexin V-FITC/propidium iodide staining based flow cytometry (Rvb =6.7 %); assay type: cell-based; settings: l02, 48 h
[20] = Cell cycle arrest in human HL-7702 cells assessed as accumulation at G1 phase by FACS flow cytometry; assay type: cell-based; settings: l02
Bel-7402 [21] = test: Cell cycle arrest in human Bel7402 cells assessed as accumulation at sub-G1 phase by FACS flow cytometry; assay type: functional
A549 = test: Cytotoxicity against human A549 cells after 72 hrs by MTT assay; assay type: functional, cell-based; settings: A549, 72 h
OVCAR-3 = test: Cytotoxicity against human OVCAR3 cells after 72 hrs by MTT assay; assay type: functional, cell-based; settings: OVCAR-3, 72 h
Bel-7402 [22] = test: Induction of apoptosis in human Bel7402 cells assessed as late apoptotic cells at 2.5 uM after 24 hrs by annexin V-FITC/propidium iodide staining based flow cytometry (reference value: 7.5 %); assay type: functional
Bel-7402 [23] = test: Cytotoxicity against human Bel7402 cells at 2.5 uM by MTT assay; assay type: functional, cell-based; settings: TDE = time-dependent effect
SGC-7901 = test: Cytotoxicity against human SGC7901 cells after 72 hrs by MTT assay; assay type: functional, cell-based; settings: SGC-7901, 72 h
Bel-7402 [24] = test: Induction of apoptosis in human Bel7402 cells assessed as early apoptotic cells at 2.5 uM after 48 hrs by annexin V-FITC/propidium iodide staining based flow cytometry (reference value: 6.9 %); assay type: functional
[25] = Down regulation of Cyclin A expression in human HL-7702 cells assessed as reduction in mRNA level at 2.5 uM after 48 hrs by RT-PCR analysis; assay type: ADME, cell-based; set-up: scale not given: the % may be the effect or the level left; settings: l02, 48 h
Bel-7402 [26] = test: Down regulation of Cdc25A expression in human Bel7402 cells at 2.5 uM after 48 hrs by Western blotting analysis; assay type: functional, cell-based
Bel-7402 [27] = test: Down regulation of CDK4 expression in human Bel7402 cells at 2.5 uM after 48 hrs by Western blotting analysis; assay type: functional, cell-based
Bel-7402 [28] = test: Induction of apoptosis in human Bel7402 cells assessed as caspase 8 activation; assay type: functional, cell-based
Bel-7402 [29] = test: Down regulation of Cyclin A expression in human Bel7402 cells at 2.5 uM after 48 hrs by Western blotting analysis; assay type: functional, cell-based
Bel-7402 [30] = test: Down regulation of CDK2 expression in human Bel7402 cells at 2.5 uM after 48 hrs by Western blotting analysis; assay type: functional, cell-based
Bel-7402 [31] = test: Down regulation of Cyclin B expression in human Bel7402 cells at 2.5 uM after 48 hrs by Western blotting analysis; assay type: functional, cell-based
Bel-7402 [32] = test: Down regulation of CDK1 expression in human Bel7402 cells at 2.5 uM after 48 hrs by Western blotting analysis; assay type: functional, cell-based
Bel-7402 [33] = test: Down regulation of Cdc25A expression in human Bel7402 cells at 2.5 uM after 12 hrs by Western blotting analysis; assay type: functional, cell-based

C[C@@H]1O[C@@H](O[C@H]2[C@H](O[C@H]3CO[C@@H](O[C@H]4CC[C@]5(C)[C@H]6CC[C@]78OC[C@@]9(CCC(C)(C)C[C@H]97)[C@H](O)C[C@@]8(C)[C@]6(C)CC[C@H]5C4(C)C)[C@H](O[C@@H]4O[C@H](CO)[C@@H](O)[C@H](O)[C@H]4O)[C@H]3O)O[C@H](CO)[C@@H](O)[C@@H]2O)[C@H](O)[C@H](O)[C@H]1O
IC50 (Bel-7402 [1]): 1.18 µM | IC50 (Bcap37): > 10 µM | Activity [2]: 12.3% | IC50 [3]: > 100 µM | IC50 (HepG2): 3.17 µM | Activity [4]: tde | Activity (Bel-7402 [5]): 76.6% | Activity [6]: Dose-dependent effect | Activity (Bel-7402 [7]): 5.3% | Activity [8]: < 1% | IC50 (NCI-H157): 5.21 µM | Activity [9]: 8.9% | Activity (Bel-7402 [10]): 42.3% | IC50 (MCF7): > 10 µM | IC50 (DU-145): 5.47 µM | IC50 (NCI-H460): > 10 µM | Activity [11]: 19.7% | IC50 (MKN-45): 6.23 µM | IC50 (Caco-2): 7.66 µM | Activity (Bel-7402 [12]): Active | IC50 [13]: 7.92 µM | IC50 (HCT-116): > 10 µM | Activity (Bel-7402 [14]): Dose-dependent effect | IC50 (NCI-H446): 7.74 µM | Activity [15]: Toxic | Activity (Bel-7402 [16]): 36.5% | Activity (Bel-7402 [17]): 23.4% | Activity (Bel-7402 [18]): 36.7% | Activity [19]: 7.2% | Activity [20]: 67.3% | Activity (Bel-7402 [21]): 48.4% | IC50 (A549): 4.41 µM | IC50 (OVCAR-3): 8.22 µM | Activity (Bel-7402 [22]): 3.4% | Activity (Bel-7402 [23]): tde | IC50 (SGC-7901): 5.88 µM | Activity (Bel-7402 [24]): 16.1%

CC1(C)CC[C@]23CO[C@@]4(CC[C@@H]5[C@@]6(C)CC[C@H](O[C@@H]7OC[C@H](O[C@@H]8O[C@H](CO)[C@@H](O)[C@H](O[C@@H]9O[C@H](CO)[C@@H](O)[C@H](O[C@@H]%10O[C@H](CO)[C@@H](O)[C@H](O)[C@H]%10O)[C@H]9O)[C@H]8O[C@@H]8OC[C@@H](O)[C@H](O)[C@H]8O)[C@H](O)[C@H]7O[C@@H]7O[C@H](CO)[C@@H](O)[C@H](O)[C@H]7O)C(C)(C)[C@@H]6CC[C@@]5(C)[C@]4(C)C[C@H]2O)[C@@H]3C1 [ARDISIANOSIDE B]
IC50 (Bel-7402 [1]): 0.92 µM | IC50 (Bcap37): > 10 µM | Activity [2]: 12.5% | IC50 [3]: > 100 µM | IC50 (HepG2): 2.98 µM | Activity [25]: 10% | Activity [4]: tde | Activity (Bel-7402 [5]): 74.5% | Activity [6]: Dose-dependent effect | Activity (Bel-7402 [7]): 3.9% | Activity [8]: < 1% | IC50 (NCI-H157): 5.09 µM | Activity [9]: 9.2% | Activity (Bel-7402 [26]): Active | Activity (Bel-7402 [10]): 46.4% | IC50 (MCF7): > 10 µM | Activity (Bel-7402 [27]): Active | IC50 (DU-145): 6.17 µM | IC50 (NCI-H460): > 10 µM | Activity (Bel-7402 [28]): Active | Activity [11]: 19.1% | Activity (Bel-7402 [29]): Active | IC50 (MKN-45): 8.39 µM | IC50 (Caco-2): 7.19 µM | Activity (Bel-7402 [12]): Active | Activity (Bel-7402 [30]): Active | IC50 [13]: > 10 µM | IC50 (HCT-116): > 10 µM | Activity (Bel-7402 [14]): Dose-dependent effect | IC50 (NCI-H446): 6.63 µM | Activity (Bel-7402 [31]): Active | Activity [15]: Toxic | Activity (Bel-7402 [16]): 39.4% | Activity (Bel-7402 [17]): 25.5% | Activity (Bel-7402 [18]): 41.5% | Activity [19]: 8.3% | Activity [20]: 68.4% | Activity (Bel-7402 [21]): 57.8% | Activity (Bel-7402 [32]): Active | IC50 (A549): 4.47 µM | Activity (Bel-7402 [33]): Active | IC50 (OVCAR-3): > 10 µM | Activity (Bel-7402 [22]): 3.2% | Activity (Bel-7402 [23]): tde | IC50 (SGC-7901): 5.37 µM | Activity (Bel-7402 [24]): 17.6%

COc1cccc2c1C(=O)c1c(O)c3c(c(O)c1C2=O)C[C@@](O)(C(=O)CO)C[C@@H]3O[C@H]1C[C@H](N)[C@@H](O)[C@H](C)O1 [EPIRUBICIN]
IC50 (Bel-7402 [1]): 1.23 µM | IC50 (Bcap37): 0.89 µM | IC50 [3]: 1.74 µM | IC50 (HepG2): 2.23 µM | IC50 (NCI-H157): 1.72 µM | IC50 (MCF7): 1.25 µM | IC50 (DU-145): 4.01 µM | IC50 (NCI-H460): 6.74 µM | IC50 (MKN-45): 0.66 µM | IC50 (Caco-2): 0.41 µM | IC50 [13]: 3.41 µM | IC50 (HCT-116): 0.57 µM | IC50 (NCI-H446): 2.35 µM | IC50 (A549): 0.88 µM | IC50 (OVCAR-3): 0.75 µM | IC50 (SGC-7901): 0.51 µM
